Consider six compounds from ChEMBL document CHEMBL1152097, “Preparation of neurotensin analogs with a novel pro-tyr replacement” (Bioorg Med Chem Lett, 1995).

Structures are written as SMILES.

The target of this assay is Neurotensin receptor type 1 (Rattus norvegicus, UniProt P20789). The assay is described as follows: Tested for binding affinity against Neurotensin receptor.
Sequence of Neurotensin receptor type 1 (P20789 whole entry): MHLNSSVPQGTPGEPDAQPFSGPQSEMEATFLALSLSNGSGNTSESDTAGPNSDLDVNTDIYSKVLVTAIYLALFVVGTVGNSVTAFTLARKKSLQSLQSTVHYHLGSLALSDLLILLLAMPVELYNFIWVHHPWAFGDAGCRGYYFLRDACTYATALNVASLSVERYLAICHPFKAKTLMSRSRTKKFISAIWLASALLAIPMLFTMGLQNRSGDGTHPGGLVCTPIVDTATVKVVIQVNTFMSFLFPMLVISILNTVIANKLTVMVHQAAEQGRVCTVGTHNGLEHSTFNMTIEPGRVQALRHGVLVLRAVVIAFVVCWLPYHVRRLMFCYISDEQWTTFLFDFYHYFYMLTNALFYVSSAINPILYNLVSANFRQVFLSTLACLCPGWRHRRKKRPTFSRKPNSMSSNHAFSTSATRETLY
`CC[C@H](C)[C@H](NC(=O)N(Cc1ccc(O)cc1)c1cccc(NC(=O)[C@H](CCCCN)NC(=O)OC(C)(C)C)c1)C(=O)N[C@@H](CC(C)C)C(=O)O` displayed an inhibitory constant (Ki) of 1250 nM.

On to `CC[C@H](C)[C@H](NC(=O)N(Cc1ccc(O)cc1)c1cccc(NC[C@H](CCCCN)NC(=O)OC(C)(C)C)c1)C(=O)N[C@@H](CC(C)C)C(=O)O`, for which affinity was put at a Ki of 730 nM. This Ki lies about 1.7-fold lower than the previous one.

The compound `CC[C@H](C)[C@H](NC(=O)N(Cc1ccc(O)cc1)c1cccc(NC(=O)[C@H](CCCCN)NC(=O)OC(C)(C)C)c1F)C(=O)N[C@@H](CC(C)C)C(=O)O` yielded an inhibition constant (Ki) of 2200 nM.

`CC[C@H](C)[C@H](NC(=O)[C@H](Cc1ccc(O)cc1)c1cccc(NC(=O)[C@H](CCCCN)NC(=O)OC(C)(C)C)c1)C(=O)N[C@@H](CC(C)C)C(=O)O` came in with a Ki of 29 nM.

In turn, `CC[C@H](C)[C@H](NC(=O)N(Cc1ccc(O)cc1)c1ccc(F)c(NC(=O)[C@H](CCCCN)NC(=O)OC(C)(C)C)c1)C(=O)N[C@@H](CC(C)C)C(=O)O` returned a Ki of over 10000 nM.

Compound `CC[C@H](C)[C@H](NC(=O)N(Cc1ccc(F)cc1)c1cccc(NC(=O)[C@H](CCCCN)NC(=O)OC(C)(C)C)c1)C(=O)N[C@@H](CC(C)C)C(=O)O` yielded a Ki of 890 nM.
